This assay has as its system L1210 leukemia ip in BDF1 mice, survival T/C. Briefly: NCI In Vivo Anticancer Drug Screen. Data for tumor model L1210 Leukemia (intraperitoneal) in B6D2F1 (BDF1) mice. As to conditions: endpoint: mean survival time, higher = longer survival. The procedure, abridged:
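Ratio derived from survival: compound-dosed mice over vehicle-dosed mice, all bearing a transplantable tumor.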

The mark [1] stands for this setting: dose: 100.0 mg/kg/injection, schedule: Q04DX002 (ip), vehicle: saline with Tween-80.
Setting [2] is: dose: 100.0 mg/kg/injection, schedule: Q01DX009 (ip), vehicle: Klucel (hydroxypropylcellulose) (HPC).
Setting [3] is: dose: 200.0 mg/kg/injection, schedule: Q01DX009 (ip), vehicle: Klucel (hydroxypropylcellulose) (HPC).
The mark [4] stands for this setting: dose: 100.0 mg/kg/injection, schedule: Q04DX003 (ip), vehicle: Klucel (hydroxypropylcellulose) (HPC).
The mark [5] stands for this setting: dose: 200.0 mg/kg/injection, schedule: Q04DX003 (ip), vehicle: Klucel (hydroxypropylcellulose) (HPC).
The mark [6] stands for this setting: dose: 400.0 mg/kg/injection, schedule: Q04DX003 (ip), vehicle: Klucel (hydroxypropylcellulose) (HPC).
Setting [7] is: dose: 100.0 mg/kg/injection, schedule: Q04DX003 (ip), vehicle: saline with Tween-80.
Setting [8] is: dose: 200.0 mg/kg/injection, schedule: Q04DX003 (ip), vehicle: saline with Tween-80.
The mark [9] stands for this setting: dose: 400.0 mg/kg/injection, schedule: Q04DX003 (ip), vehicle: saline with Tween-80.
The mark [10] stands for this setting: dose: 100.0 mg/kg/injection, schedule: Q01DX001 (ip), vehicle: saline.
Setting [11] is: dose: 50.0 mg/kg/injection, schedule: Q01DX009 (ip), vehicle: saline with Tween-80.

“And” between values parts separate entries of the source, which are not always exact repeats. Equal values may be shown once. Toxic doses and inconclusive results are not listed.

Consider `CCC(C(O)c1ccccc1)[N+](=O)[O-]` (configuration not stated), for which the T/C (dose: 100.0 mg/kg/injection, schedule: Q04DX003 (ip), vehicle: other) is 100 % of control; the T/C (dose: 200.0 mg/kg/injection, schedule: Q04DX003 (ip), vehicle: other) was 100 % of control; the T/C (dose: 400.0 mg/kg/injection, schedule: Q04DX003 (ip), vehicle: other) was 96 % of control.

As to `NCCSc1ccccc1`, the T/C runs as follows: (dose: 25.0 mg/kg/injection, schedule: Q04DX002 (ip), vehicle: saline with Tween-80) 92 % of control; (dose: 50.0 mg/kg/injection, schedule: Q04DX002 (ip), vehicle: saline with Tween-80) 101 % of control; under setting [1], 96 % of control and 114 % of control.

Regarding `COC(=O)C1C(C(=O)OC)C2(Cl)C(Cl)=C(Cl)C1(Cl)C2(Cl)Cl` (configuration not stated), the T/C under setting [2] was 98 % of control and the T/C under setting [3] was 104 % of control.

As to `Cc1ccccc1N(C)C(=S)c1ccc(Cl)cc1`, the T/C by setting is: (dose: 100.0 mg/kg/injection, schedule: Q01DX001 (ip), vehicle: Klucel (hydroxypropylcellulose) (HPC)) 105 % of control; under setting [4], 92 % of control; (dose: 200.0 mg/kg/injection, schedule: Q01DX001 (ip), vehicle: Klucel (hydroxypropylcellulose) (HPC)) 102 % of control; under setting [5], 94 % of control; (dose: 400.0 mg/kg/injection, schedule: Q01DX001 (ip), vehicle: Klucel (hydroxypropylcellulose) (HPC)) 110 % of control; under setting [6], 96 % of control.

On to `Cc1ccccc1OP(=O)(Oc1ccccc1C)Oc1ccccc1C`, for which the T/C is, setting by setting: (dose: 50.0 mg/kg/injection, schedule: Q01DX001 (ip), vehicle: carboxymethylcellulose (CMC)) 104 % of control; (dose: 100.0 mg/kg/injection, schedule: Q01DX001 (ip), vehicle: carboxymethylcellulose (CMC)) 101 % of control; (dose: 200.0 mg/kg/injection, schedule: Q01DX001 (ip), vehicle: carboxymethylcellulose (CMC)) 95 % of control; (dose: 400.0 mg/kg/injection, schedule: Q01DX001 (ip), vehicle: carboxymethylcellulose (CMC)) 93 % of control.

In the case of `Cc1cc(C)c(NC(=O)/C=C/C(=O)O)c(C)c1`, the T/C runs as follows: under setting [1], 91 % of control and 92 % of control; (dose: 200.0 mg/kg/injection, schedule: Q04DX002 (ip), vehicle: saline with Tween-80) 94 % of control and 99 % of control; (dose: 800.0 mg/kg/injection, schedule: Q04DX002 (ip), vehicle: saline with Tween-80) 103 % of control.

Consider `[O-][n+]1ccc(-c2ccccc2)cc1`, for which the T/C was 107 % of control (dose: 100.0 mg/kg/injection, schedule: Q04DX002 (ip), vehicle: saline) and 96 % of control (dose: 200.0 mg/kg/injection, schedule: Q04DX002 (ip), vehicle: saline).

As to `Nc1ccc2ncccc2c1` (tested in a mixture with another compound), the T/C is, setting by setting: (dose: 100.0 mg/kg/injection, schedule: Q04DX003 (ip), vehicle: gum acacia) 100 % of control; (dose: 200.0 mg/kg/injection, schedule: Q04DX003 (ip), vehicle: gum acacia) 91 % of control; (dose: 400.0 mg/kg/injection, schedule: Q04DX003 (ip), vehicle: gum acacia) 100 % of control.

For the compound `O=C(CCc1ccc(C(=O)Nc2ccc(C3=NCCN3)cc2)cc1)Nc1ccc(C2=NCCN2)cc1`, the T/C runs as follows: (dose: 1.87 mg/kg/injection, schedule: Q01DX Z (ip), vehicle: carboxymethylcellulose (CMC)) 101 % of control; (dose: 3.75 mg/kg/injection, schedule: Q01DX Z (ip), vehicle: carboxymethylcellulose (CMC)) 103 % of control; (dose: 7.5 mg/kg/injection, schedule: Q01DX Z (ip), vehicle: carboxymethylcellulose (CMC)) 99 % of control; (dose: 15.0 mg/kg/injection, schedule: Q01DX Z (ip), vehicle: carboxymethylcellulose (CMC)) 235 % of control; (dose: 30.0 mg/kg/injection, schedule: Q01DX Z (ip), vehicle: carboxymethylcellulose (CMC)) 223 % of control and 295 % of control; (dose: 60.0 mg/kg/injection, schedule: Q01DX Z (ip), vehicle: carboxymethylcellulose (CMC)) 239 % of control and 262 % of control.

With `Cc1cc(=O)cc(C(=O)O)o1`, the T/C is 107 % of control (dose: 75.0 mg/kg/injection, schedule: Q01DX001 (ip), vehicle: saline); 107 % of control (dose: 150.0 mg/kg/injection, schedule: Q01DX001 (ip), vehicle: saline); 109 % of control (dose: 300.0 mg/kg/injection, schedule: Q01DX001 (ip), vehicle: saline).

Regarding `COc1ccc(Sc2cccc3c2C(=O)c2c(Sc4ccc(OC)cc4)cccc2C3=O)cc1`, the T/C is 91 % of control under setting [7], 96 % of control under setting [8] and 87 % of control under setting [9].

As to `COc1c(C)c(C)c(OC(C)=O)c(C)c1Br`, the T/C by setting is: under setting [7], 96 % of control; under setting [8], 89 % of control; under setting [9], 91 % of control.

As to `Nc1nc2c(ncn2-c2ccc(NS(=O)(=O)c3cccc(S(=O)(=O)F)c3)cc2)c(=O)[nH]1`, the T/C (dose: 75.0 mg/kg/injection, schedule: Q01DX001 (ip), vehicle: Klucel (hydroxypropylcellulose) (HPC)) was 97 % of control and the T/C (dose: 300.0 mg/kg/injection, schedule: Q01DX001 (ip), vehicle: Klucel (hydroxypropylcellulose) (HPC)) was 88 % of control.

As to `COC(=O)C1C(O)CCC2CN3CCc4c([nH]c5ccccc45)C3CC21` (configuration not stated), the T/C runs as follows: (dose: 50.0 mg/kg/injection, schedule: Q01DX001 (ip), vehicle: saline) 102 % of control; (dose: 75.0 mg/kg/injection, schedule: Q01DX Z (ip), vehicle: carboxymethylcellulose (CMC)) 92 % of control; under setting [10], 91 % of control; (dose: 150.0 mg/kg/injection, schedule: Q01DX Z (ip), vehicle: carboxymethylcellulose (CMC)) 100 % of control.

With `O/N=C\c1ccc(/C=N/O)cc1`, the T/C reads like this: under setting [11], 97 % of control; (dose: 100.0 mg/kg/injection, schedule: Q01DX009 (ip), vehicle: saline with Tween-80) 93 % of control; (dose: 200.0 mg/kg/injection, schedule: Q01DX009 (ip), vehicle: saline with Tween-80) 97 % of control.

For `COc1ccc(C(=O)NC2C(OC(C)=O)OC(COC(C)=O)C(OC(C)=O)C2OC(C)=O)cc1` (configuration not stated), the T/C by setting is: under setting [10], 98 % of control and 101 % of control; (dose: 200.0 mg/kg/injection, schedule: Q01DX001 (ip), vehicle: saline) 96 % of control and 106 % of control; (dose: 400.0 mg/kg/injection, schedule: Q01DX001 (ip), vehicle: saline) 90 % of control and 89 % of control.

`[O-][N+](=Nc1ccc(Br)cc1)c1ccc(Br)cc1`: the T/C runs as follows: (dose: 100.0 mg/kg/injection, schedule: Q04DX002 (ip), vehicle: Klucel (hydroxypropylcellulose) (HPC)) 95 % of control; (dose: 200.0 mg/kg/injection, schedule: Q04DX002 (ip), vehicle: Klucel (hydroxypropylcellulose) (HPC)) 100 % of control; (dose: 400.0 mg/kg/injection, schedule: Q04DX002 (ip), vehicle: Klucel (hydroxypropylcellulose) (HPC)) 89 % of control.

With `Cc1cc([N+](=O)[O-])ccc1N=O`, the T/C (dose: 12.5 mg/kg/injection, schedule: Q01DX009 (ip), vehicle: saline with Tween-80) was 101 % of control; the T/C (dose: 25.0 mg/kg/injection, schedule: Q01DX009 (ip), vehicle: saline with Tween-80) was 102 % of control; the T/C under setting [11] is 98 % of control; the T/C under setting [7] is 98 % of control; the T/C under setting [8] is 100 % of control; the T/C under setting [9] is 100 % of control.

As for `O=C(Oc1ccccc1Cl)c1ccc(Cl)c(Cl)c1`, the T/C was 98 % of control under setting [2]; 95 % of control under setting [4]; 93 % of control under setting [3]; 90 % of control under setting [5]; 90 % of control (dose: 400.0 mg/kg/injection, schedule: Q01DX009 (ip), vehicle: Klucel (hydroxypropylcellulose) (HPC)); 90 % of control under setting [6].

Consider `O=C(Nc1c(Oc2ccc(Cl)cc2)ccc(Cl)c1S(=O)(=O)O)Nc1c(Oc2ccc(Cl)cc2)ccc(Cl)c1S(=O)(=O)O`, for which the T/C (dose: 100.0 mg/kg/injection, schedule: Q01DX001 (ip), vehicle: acetone) was 95 % of control; the T/C (dose: 100.0 mg/kg/injection, schedule: Q04DX003 (ip), vehicle: saline) is 95 % of control; the T/C (dose: 200.0 mg/kg/injection, schedule: Q04DX003 (ip), vehicle: saline) was 96 % of control; the T/C (dose: 400.0 mg/kg/injection, schedule: Q01DX001 (ip), vehicle: acetone) is 92 % of control.

The values above are taken from PubChem BioAssay AID248 (DTP/NCI, 2004).
